Values after ≈ are worked out from the molar mass of the structure shown.

Two molecules from ChEMBL document CHEMBL3046782, “Fungicidial Activity of Benthiavalicarb-isopropyl against Phytophthora infestans and Its Controlling Activity against Late Blight Diseases” (J Pestic Sci, 2005) can be followed below.

The subject of the test is Phytophthora infestans. Description: Antifungal activity against phenylamide-resistant Phytophthora infestans 7-1 assessed as inhibition of mycelial growth after 5 to 7 days. It counts as functional, organism-based, 07-Jan. The settings on record: for IC50: Phytophthora infestans, 07-Jan, read-out: I50.

Regarding `CC(C)OC(=O)N[C@H](C(=O)N[C@H](C)c1nc2ccc(F)cc2s1)C(C)C` [BENTHIAVALICARB-ISOPROPYL], the MIC worked out at 0.1 mg/L (≈ 0.262 µM) and the IC50 amounted to 0.04 µg/mL (≈ 0.105 µM).

For the molecule `COCC(=O)N(c1c(C)cccc1C)C(C)C(=O)OC` (centres undefined) [METALAXYL], the MIC is reported as greater than 10 mg/L and the IC50 was greater than 10 µg/mL.
